From patent publication US20090324752A1, “COSMETIC USE OF ACTIVE INGREDIENTS INCREASING THE PRODUCTION OF GROWTH FACTORS” (CHANEL PARFUMS BEAUTE, priority 2006, published 2009) come the findings set out here.

The test relates to Human dermal fibroblasts. Briefly: Stimulation of fibroblast proliferation by PDGF and FGFb (CellTiter 96 Aqueous One, absorbance 490 nm). The test is classed as cell-based. The settings on record: 24 h, compared to the control (untreated = 100.00). As to the method:
Human dermal fibroblasts from a single donor were obtained from Cascade. At the 7rd passage, cells were seeded in 96 well plates and cultured in Dulbecco's modified Eagle medium DMEM (Gibco BRL, Gaithersburg, USA) supplemented with 10% foetal bovine serum (FBS, PAA, Linz, Austria), […] L-glutamine (Gibco) and 1% penicillin/streptomycin (Gibco). All cell culture was performed at […] in 5% CO2 and 95% air. This fibroblast culture was incubated by two growth factors ([…] and FGFb) at various concentrations for 24 h. After 24 hours incubation, 200 μL dosed media from 96-well plate were removed. CellTiter 96 Aqueous One Solution Reagent was used as described by the manufacturer. The absorbance at 490 nm was recorded using a plate reader to evaluate cell proliferation. The controls were the non treated cells. The experiment was conducted in 8 times by concentration.

With “FGFb (157 aa): Basic Fibroblast Growth Factor (157 aa), growth factor added to fibroblast culture”, the “Stimulation (%) of fibroblast proliferation” value reads like this: (1 ng/ml) 141.22%; (10 ng/ml) 149.20%.
Regarding PDGF, the “Stimulation (%) of fibroblast proliferation” value by setting is: (1 ng/ml) 107.20%; (10 ng/ml) 154.37%; (30 ng/ml) 185.58%.
